One assay concerns human platelet. As to conditions: cited from earlier work; for IC50: literature, read-out: IC50, inhibition of AA-induced platelet aggregation.
The subject of assay [1] is human platelet-rich plasma. Description: Inhibition of arachidonic acid-induced aggregation in human platelet-rich plasma. The class given is cell-based. As to the method:
The R- and S-enantiomers were tested as inhibitors of arachidonic acid-induced aggregation in human platelet-rich plasma. Data for individual experiments (2 separate donors) are given as pIC50 (log molar inhibitory concentration of each drug which blocks aggregation to arachidonic acid by 50%) Inhibitors were preincubated for 1 minute prior to addition of arachidonic acid (200-400 μM). Changes in light transmission were measured as an index of aggregation and quantified after 4 minutes.

The next assay has as its system platelet function. To be noted: cited from earlier work.
Setting [2] is: Homo sapiens, arithmetic average of raw data, N = 3, read-out: inhibitory concentration which blocks aggregation by 50%, AVE.
Where [3] appears, read: Homo sapiens, average, N = 3, read-out: pIC50 (-1xLOG(0.000001xDATA)), AVE (converted).
[4] abbreviates: Homo sapiens, geometric mean, N = 3, read-out: inhibitory concentration which blocks aggregation by 50%, back-transformed data (Geometric mean) AVE.

Where “and” joins values, the source holds several entries; their conditions need not be identical. Equal values may be shown once. Read-outs that look alike come from different tables or passages of the source.

On to `O=C1OC(c2ccc(-c3ccc(Cl)cc3)cc2)C(O)=C1O` (centres unmarked) [4-(4'-chlorobiphenyl)-2-hydroxytetronic acids], for which, in the assay with human platelet, the IC50 was 44 µM.
As for `CCCCC/C=C\C/C=C\C/C=C\C/C=C\CC[C@H]1OC(=O)C(O)=C1O` [(R)-3,4-Dihydroxy-5-[all-Z)-3,6,9,12-octadecatetraenyl]-2(51H)-furanone], the IC50 in assay [1] (setting [2]) was 653 µM; in assay [1] (setting [3]) it was 647 µM; in assay [1] (setting [4]) it was 647 µM; in assay [1] (Homo sapiens, individual experiments, human platelet-rich plasma, arachidonic acid 200-400 μM, 1 minute preincubation, quantified after 4 minutes, read-out: inhibitory concentration which blocks aggregation to arachidonic acid by 50% (RAW DATA)), 764 µM; in assay [1] (Homo sapiens, individual experiments, human platelet-rich plasma, arachidonic acid 200-400 μM, read-out: pIC50 (-1xLOG(0.000001xDATA)) (converted)), 764 µM; in assay [1] (individual experiments, human platelet-rich plasma, arachidonic acid 200-400 μM, 1 minute preincubation, quantified after 4 minutes, read-out: inhibitory concentration which blocks aggregation to arachidonic acid by 50% (RAW DATA)), 538 µM and 657 µM. For the same compound, in assay [1] (individual experiments, human platelet-rich plasma, arachidonic acid 200-400 μM), the “pIC50 (-1xLOG(0.000001xDATA))” value was 3.269 and 3.182.
Take `CCCCC/C=C\C/C=C\C/C=C\C/C=C\CC[C@@H]1OC(=O)C(O)=C1O` [(S)-3,4 -Dihydroxy-5-[(all-Z)-3,6,9,12-octadecatetraenyl]-2 (5H)-furanone]: the IC50 in assay [1] (setting [2]) is 2.27 µM; in assay [1] (setting [3]), 1.45 µM; in assay [1] (setting [4]) it was 1.45 µM.
Consider `O=C1OC(c2ccc(Cl)cc2)C(O)=C1O` (centres unmarked) [CHTA, 4-(4-chlorophenyl)-2-hydroxytetronic acid], for which the “antilipidemic and antiaggregatory properties” value with human platelet was “possesses antilipidemic and antiaggregatory properties”. In the assay with platelet function, the “inhibition of platelet function” value was “inhibits platelet function by both enzyme inhibitory and ROS scavenging mechanisms resulting ultimately in the blockage of thromboxane A2 synthesis”.
As for `O=C1OC(c2ccc(-c3ccccc3)cc2)C(O)=C1O` (centres unmarked) [Example 4-biphenyl], the IC50 in the assay on human platelet was 135 µM.

The record behind these values is patent publication US5656662A, “Synthesis of optically pure 4-alkenyl- or 4-alkanyl-2-hydroxytetronic acids” (The Ohio State University Research Foundation, priority 1995, dated 1997).
